Test results: PMC9120017, “Inhibition mechanism of the chloride channel TMEM16A by the pore blocker 1PBC” (Nature Communications, 2022)
Like-named read-outs stand apart in the source and are kept apart here.

Target: T1, mouse TMEM16A mutant V511A (Mus musculus, UniProt Q8BHY3, V511A)
T1 construct: expressed in transfected cells; host or cells: HEK293T
T1 sequence (Q8BHY3 1-960 V511A): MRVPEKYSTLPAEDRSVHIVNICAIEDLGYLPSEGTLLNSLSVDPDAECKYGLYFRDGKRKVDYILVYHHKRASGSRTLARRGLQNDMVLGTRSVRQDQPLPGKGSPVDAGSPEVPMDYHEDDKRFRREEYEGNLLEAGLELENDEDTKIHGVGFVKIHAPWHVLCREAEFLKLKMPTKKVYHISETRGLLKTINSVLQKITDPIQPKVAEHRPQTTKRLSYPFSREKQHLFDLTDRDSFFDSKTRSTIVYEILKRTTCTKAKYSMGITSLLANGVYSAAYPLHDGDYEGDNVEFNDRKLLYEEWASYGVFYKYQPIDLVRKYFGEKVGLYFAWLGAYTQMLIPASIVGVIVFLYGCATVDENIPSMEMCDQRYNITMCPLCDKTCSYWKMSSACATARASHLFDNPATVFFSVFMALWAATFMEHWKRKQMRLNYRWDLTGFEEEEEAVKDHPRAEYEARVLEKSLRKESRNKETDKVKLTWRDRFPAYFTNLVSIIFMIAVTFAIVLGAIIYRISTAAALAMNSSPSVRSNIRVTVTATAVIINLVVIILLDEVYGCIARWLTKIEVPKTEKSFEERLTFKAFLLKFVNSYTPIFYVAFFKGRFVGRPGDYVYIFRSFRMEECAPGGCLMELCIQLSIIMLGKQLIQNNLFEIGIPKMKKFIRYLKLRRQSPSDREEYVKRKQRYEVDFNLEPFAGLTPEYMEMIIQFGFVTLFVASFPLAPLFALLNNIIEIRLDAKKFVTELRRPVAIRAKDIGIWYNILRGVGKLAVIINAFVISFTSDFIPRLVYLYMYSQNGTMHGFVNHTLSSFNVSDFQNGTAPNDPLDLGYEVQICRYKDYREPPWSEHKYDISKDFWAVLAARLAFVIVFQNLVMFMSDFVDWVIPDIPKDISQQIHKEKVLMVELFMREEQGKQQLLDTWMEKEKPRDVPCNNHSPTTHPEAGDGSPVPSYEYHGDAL
Assay: Inside-out patch recording of 1PBC block, mutant V511A
Type: cell-based
Conditions: for remaining activity at 3 µM: 1PBC 3; for remaining activity at 3 µM / remaining activity at 10 µM / remaining activity at 30 µM / remaining activity at 100 µM: read-out: fraction of unblocked current; for remaining activity at 10 µM: 1PBC 10; for remaining activity at 30 µM: 1PBC 30; for remaining activity at 100 µM: 1PBC 100
Procedure: HEK293T cells (ATCC CRL-1573) were maintained in Dulbecco’s modified Eagle’s medium (DMEM; Sigma-Aldrich) supplemented with 10 U ml^−1 penicillin, 0.1 mg ml^−1 streptomycin (Sigma-Aldrich), 2 mM L-glutamine (Sigma-Aldrich), and 10% FBS (Sigma-Aldrich) in a humidified atmosphere containing 5% CO2 at 37 °C. HEK293S GnTI^− cells (ATCC CRL-3022) were maintained in HyClone HyCell TransFx-H medium (GE Healthcare) supplemented with 10 U ml^−1 penicillin, 0.1 mg ml^−1 streptomycin, 4 mM L-glutamine, 0.15% poloxamer 188 (Sigma-Aldrich), and 1% FBS in an atmosphere containing 5% CO2 at 185 rpm at 37 °C. The ac splice variant of mouse TMEM16A (UniProt ID: Q8BHY3), mouse TMEM16B (UniProt ID: Q8CFW1), or mouse TMEM16F (UniProt ID: Q6P9J9) bearing a 3C cleavage site, a Venus YFP, a Myc tag, and a Streptavidin-binding peptide (SBP) downstream of the open reading frame in a modified pcDNA3.1 vector (Invitrogen) were used as described previously[21],[31]. Mutations were introduced using a modified QuikChange method[58] and were verified by sequencing.
HEK293T cells were transfected with 3–4 μg DNA per 6 cm Petri dish using the calcium phosphate co-precipitation method and were used within 24–96 h after transfection. Recordings were performed on inside-out patches excised from HEK293T cells expressing the construct of interest. Patch pipettes were pulled from borosilicate glass capillaries (O.D. 1.5 mm, I.D. 0.86 mm, Sutter Instrument) and were fire-polished with a microforge (Narishige) before use. Pipette resistance was typically 3–8 MΩ when filled with the recording solutions detailed below. Seal resistance was typically 4 GΩ or higher. Voltage-clamp recordings were made using Axopatch 200B, Digidata 1550, and Clampex 10.7 (Molecular Devices). Analog signals were filtered with the in-built 4-pole Bessel filter at 10 kHz and were digitized at 20 kHz. Solution exchange was achieved using a gravity-fed system through a theta glass pipette mounted on an ultra-fast piezo-driven stepper (Siskiyou). […] All recordings were performed at 20 °C.
A symmetrical ionic condition was used throughout. Stock solution with Ca^2+-EGTA contained 150 mM NaCl, 5.99 mM Ca(OH)2, 5 mM EGTA, and 10 mM HEPES at pH 7.40. Stock solution with EGTA contained 150 mM NaCl, 5 mM EGTA, and 10 mM HEPES at pH 7.40. Free Ca^2+ concentrations were adjusted by mixing the stock solutions at the required ratios calculated using the WEBMAXC program (http://web.stanford.edu/~cpatton/webmaxcS.htm). Patch pipettes were filled with the stock solution with Ca^2+-EGTA, which has a free Ca^2+ concentration of 1 mM. 1PBC (ChemBridge) stock was reconstituted in anhydrous DMSO (Sigma-Aldrich) at 100 mM and stored at −20 °C. Working solutions with 1PBC were prepared by serial dilution. Unless otherwise stated, experiments were performed at a saturating Ca^2+ concentration as shown in Supplementary Table 1 and the primary data were corrected for current rundown as described previously[21],[25].
Concentration-response relations, obtained from the ratio of the I-V plots before and after the application of the blocker, were fitted to the Hill equation,1 I/Imax=1/1+IC50/[blocker]^h where I/Imax is the normalized current responses, IC50 defines the concentration at which inhibition is at its half-maximum, and h is the Hill coefficient.

N#Cc1c(C(F)(F)F)cc(O)n2c1nc1ccccc12 [1PBC]
IC50 (0 mV, 2 µM Ca2+): 20.8 µM | remaining activity at 3 µM (0 mV): 87.8% | remaining activity at 3 µM (20 mV): 84.4% | remaining activity at 3 µM (40 mV): 80.2% | remaining activity at 3 µM (60 mV): 77.1% | remaining activity at 3 µM (80 mV): 73.1% | remaining activity at 3 µM (100 mV): 70.9% | remaining activity at 3 µM (120 mV): 69.6% | remaining activity at 3 µM (140 mV): 70.4% | remaining activity at 3 µM (-20 mV): 91.2% | remaining activity at 3 µM (-40 mV): 93% | remaining activity at 3 µM (-60 mV): 94.7% | remaining activity at 3 µM (-80 mV): 95.6% | remaining activity at 3 µM (-100 mV): 95.2% | remaining activity at 3 µM (-120 mV): 95.6% | remaining activity at 3 µM (-140 mV): 94.5% | remaining activity at 10 µM (0 mV): 68% | remaining activity at 10 µM (20 mV): 62.6% | remaining activity at 10 µM (40 mV): 56.1% | remaining activity at 10 µM (60 mV): 50.6% | remaining activity at 10 µM (80 mV): 45.9% | remaining activity at 10 µM (100 mV): 43.5% | remaining activity at 10 µM (120 mV): 41.9% | remaining activity at 10 µM (140 mV): 42.2% | remaining activity at 10 µM (-20 mV): 73.3% | remaining activity at 10 µM (-40 mV): 78.6% | remaining activity at 10 µM (-60 mV): 82.2% | remaining activity at 10 µM (-80 mV): 84.9% | remaining activity at 10 µM (-100 mV): 86.6% | remaining activity at 10 µM (-120 mV): 87% | remaining activity at 10 µM (-140 mV): 87.7% | remaining activity at 30 µM (0 mV): 40.9% | remaining activity at 30 µM (20 mV): 35.2% | remaining activity at 30 µM (40 mV): 30.5% | remaining activity at 30 µM (60 mV): 26.5% | remaining activity at 30 µM (80 mV): 24% | remaining activity at 30 µM (100 mV): 22.5% | remaining activity at 30 µM (120 mV): 22.7% | remaining activity at 30 µM (140 mV): 23.4% | remaining activity at 30 µM (-20 mV): 46.5% | remaining activity at 30 µM (-40 mV): 52.4% | remaining activity at 30 µM (-60 mV): 58.4% | remaining activity at 30 µM (-80 mV): 63.9% | remaining activity at 30 µM (-100 mV): 68.3% | remaining activity at 30 µM (-120 mV): 71.3% | remaining activity at 30 µM (-140 mV): 72.9% | remaining activity at 100 µM (0 mV): 16.5% | remaining activity at 100 µM (20 mV): 13.8% | remaining activity at 100 µM (40 mV): 11.5% | remaining activity at 100 µM (60 mV): 10.1% | remaining activity at 100 µM (80 mV): 9.26% | remaining activity at 100 µM (100 mV): 9.4% | remaining activity at 100 µM (120 mV): 9.52% | remaining activity at 100 µM (140 mV): 9.88% | remaining activity at 100 µM (-20 mV): 19.3% | remaining activity at 100 µM (-40 mV): 23.1% | remaining activity at 100 µM (-60 mV): 28.5% | remaining activity at 100 µM (-80 mV): 33.3% | remaining activity at 100 µM (-100 mV): 37.9% | remaining activity at 100 µM (-120 mV): 41.7% | remaining activity at 100 µM (-140 mV): 44.8% | IC50 (20 mV, 2 µM Ca2+): 16.4 µM | IC50 (40 mV, 2 µM Ca2+): 12.8 µM | IC50 (60 mV, 2 µM Ca2+): 10.4 µM | log-fold IC50 (change of mutant vs WT) (80 mV): 0.5163 | IC50 (80 mV, 2 µM Ca2+): 8.67 µM | IC50 (100 mV, 2 µM Ca2+): 7.86 µM | IC50 (120 mV, 2 µM Ca2+): 7.49 µM | IC50 (140 mV, 2 µM Ca2+): 7.71 µM | IC50 (-20 mV, 2 µM Ca2+): 26.3 µM | IC50 (-40 mV, 2 µM Ca2+): 33.3 µM | IC50 (-60 mV, 2 µM Ca2+): 42.3 µM | IC50 (-80 mV, 2 µM Ca2+): 52.4 µM | IC50 (-100 mV, 2 µM Ca2+): 62.9 µM | IC50 (-120 mV, 2 µM Ca2+): 72.1 µM | IC50 (-140 mV, 2 µM Ca2+): 79.5 µM | IC50 (V511A, V 0 mV): 20.8 µM | IC50 (V511A, V 20 mV): 16.4 µM | IC50 (V511A, V 40 mV): 12.8 µM | IC50 (V511A, V 60 mV): 10.4 µM | IC50 (V511A, V 80 mV): 8.67 µM | IC50 (V511A, V 100 mV): 7.86 µM | IC50 (V511A, V 120 mV): 7.49 µM | IC50 (V511A, V 140 mV): 7.71 µM | IC50 (V511A, V -20 mV): 26.3 µM | IC50 (V511A, V -40 mV): 33.3 µM | IC50 (V511A, V -60 mV): 42.3 µM | IC50 (V511A, V -80 mV): 52.4 µM | IC50 (V511A, V -100 mV): 62.9 µM | IC50 (V511A, V -120 mV): 72.1 µM | IC50 (V511A, V -140 mV): 79.5 µM
